# Measurements reported in patent US20190085334A1, “TREATMENT OF NEUROINFLAMMATION IN NEUROLOGICAL DISORDERS” (Board of Trustees of Michigan State University, priority 2017, published 2019).
# Experiments:
# [1] = test system: CXCL10 production from monocytes; test: CXCL10 production from interferon-stimulated monocytes, intracellular staining on flow cytometry; assay type: cell-based, human
# Description: (§1) Cells are plated at 3×10^5 cells/well for PBMC and isolated monocyte experiments, and 1×10^5 cell/well for isolated neutrophil experiments, in 96-well plates. Cells are cultured in complete RPMI (RPMI 1640, 10% FBS, 1×PSF). For cross-linking experiments 10 μg/mL anti-SLAMF7 mAb or SLAMF7-Fc is added to a sterile, high-binding 96-well cell culture plate O/N at 4° C. For all in vitro flow cytometry experiments, cells are cultured in the presence of stimuli for 17-18 h. In the monocyte maturation assay as shown in FIG. 18E the cells are stimulated with only 25 IU/mL IFNα for exactly 24 h. Small molecule inhibitors are added 45-60 min before IFNα for all relevant experiments. For experiments involving intracellular staining, BD GolgiPlug is added for the final 5 h. NK92 cells are purchased from ATCC and cultured as indicated by manufacturer.
# (§2) Cells are prepared and stained as previously described. Intracellular staining is performed using the BD fixation/permeabilization kit (BD Biosciences) per manufacturer's instructions. Transcription factor staining is performed with the Transcription Factor Buffer Set (BD Pharmingen) per manufacturer's instructions. Samples are analyzed on either a BD LSR II or BD FACSCanto. LIVE/DEAD staining with Aqua fixable stain (ThermoFisher) is included during initial experiments and cell viability is verified to be greater than 90%.
# [2] = test system: SLAMF7 expression on monocytes; test: SLAMF7 expression on PBMCs and monocytes by flow cytometry; assay type: cell-based, human
# Description: as §1, §2
# isolated monocytes = test: qRT-PCR of chemokine and ISG mRNA in isolated monocytes; assay type: cell-based, human; conditions: IFNα and SLAMF7 cross-linking; SHP1/2 inhibitor 10 μM
# Description: Isolated monocytes are plated in 96-well plates at 3×10^5 cells/well and stimulated as indicated for 4 h. Cells are harvested and placed into Trizol (ThermoFisher) and RNA is isolated per manufacturer's instructions. RNA is reverse transcribed with SuperStrand First Strand Synthesis Kit III (Invitrogen) per manufacturer's instructions and analyzed on a QuantStudio7 system (ThermoFisher). GAPDH is used as a housekeeping gene and the ΔΔCt method is used for analysis.
# CXCL10 = molecular target: T1, CXCL10 (Homo sapiens, UniProt P02778); conditions: monoclonal antibodies to reduce CXCL10; cited from earlier work
# T1 sequence (P02778 22-98): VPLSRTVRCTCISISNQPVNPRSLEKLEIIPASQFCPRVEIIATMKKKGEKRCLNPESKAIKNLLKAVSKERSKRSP
# [3] = test system: SLAMF7 expression on neutrophils; test: SLAMF7 expression on neutrophils by flow cytometry; assay type: cell-based, human; conditions: presence and absence of IFNα stimulation
# Description: as §1
# Cells are prepared and stained as previously described. Intracellular staining is performed using the BD fixation/permeabilization kit (BD Biosciences) per manufacturer's instructions. […] Samples are analyzed on either a BD LSR II or BD FACSCanto. […]
# (§3) CD14^+ monocytes are isolated from PBMCs via positive selection using CD14 Microbeads (Miltenyi Biotec) per manufacturer's instructions. Purity is consistently greater than 90% as assessed by flow cytometry. […] Purity is consistently greater than 98% as assessed by flow cytometry.
# isolated neutrophils = test: Cytokine/chemokine release from isolated neutrophils, BioPlex assay; assay type: cell-based, human
# Description: as §1
# For analysis of cell culture, supernatant and plasma samples 80 μL of media or plasma is used, undiluted, and the assay is run per manufacturer's instructions (Bio-Rad, Hercules, Calif.) via Luminex 100 technology. […]
# as §3
# [4] = SLAMF7-stimulated cells, IFNα, 100 nM
molecule,measurement,setting,value
CC(C)CCC[C@@H](C)[C@H]1CC[C@H]2[C@@H]3CCC4C[C@H](N)CC[C@]4(C)[C@H]3CC[C@]12C (some centres unmarked) [3AC],recovery of CXCL10 expression,"[1]; monocytes stimulated with IFNα and SLAMF7 cross-linking, pre-treatment 5 μM",does not result in recovery of CXCL10 expression
CC(C)C[C@H](NC(=O)[C@H](Cc1ccccc1)NC(=O)c1cnccn1)B(O)O [Bortezomib],CXCL10 production,[1]; [4],further decreases CXCL10 production
same,recovery of CXCL10 expression,[1]; [4],does not result in recovery of CXCL10 expression
same,SLAMF7 expression on monocytes,"[2]; with IFNα, 100 nM",acts synergistically with IFNα to upregulate SLAMF7 expression
CC(C)(C)C(=O)Nc1ccc2c(c1)C(=O)C(=O)c1ccccc1-2 [CAS 345630-40-2],rescue of CXCL10 production,"[1]; IFNα and SLAMF7 cross-linking, pre-treatment 1 μM",fails to rescue CXCL10 production
O=C(/C=C/c1ccc(CN(CCO)CCc2c[nH]c3ccccc23)cc1)NO [Dacinostat],IFNα-mediated SLAMF7 up-regulation,"[2]; classical monocytes, IFNα plus HDACi",prevents IFNα-mediated SLAMF7 up-regulation
O=S(=O)(O)c1ccc2cc(N=Nc3cc(S(=O)(=O)O)c4cccnc4c3O)ccc2c1 [NSC87877],recovery of CXCL10 expression,"[1]; monocytes stimulated with IFNα and SLAMF7 cross-linking, pre-treatment 10 μM",does not result in recovery of CXCL10 expression
same,involvement of SHP1/2 in alpha chemokine inhibition,isolated monocytes,not involved in alpha chemokine inhibition
BMS-936557: anti-CXCL10 monoclonal antibody (Brisol-Myers Squibb),anti-inflammatory activity,CXCL10,limited anti-inflammatory activity
IFNα,SLAMF7 response of CD14+ monocytes,"[2]; CD14+ monocytes, IFNα 100 IU/mL",most robust SLAMF7 response
same,percent of SLAMF7+ PBMCs,"[2]; total PBMCs from HIV+ patients, IFNα 100 IU/mL","minor, but significant increase"
same,SLAMF7 expression on neutrophils,[3],unable to upregulate SLAMF7
same,CXCL10 release from neutrophils,"isolated neutrophils; IFNα by itself, neutrophils from HCs and HIV+ patients",can induce CXCL10 release
lipopolysaccharide [LPS],CXCL10 release from neutrophils,isolated neutrophils; LPS added to IFNα,enhanced
